One may read the IC50 as the midpoint of a concentration-inhibition curve.

The source made the active and inactive calls.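 The calls were made as follows: active = maximal inhibition of USP17 at or above 30% in the confirmation dose-response, a value not among the printed readouts; inactive = the rest.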 A value given as a limit tells only on which side of the number the result lay.

Our source for the IC50 values is PubChem BioAssay AID1645864 (Buhrlage Lab, Dana-Farber Cancer Institute and Novartis …, 2021).

Sequence of Ubiquitin carboxyl-terminal hydrolase 17-like protein 5 (Homo sapiens) (A8MUK1 whole entry, looked up): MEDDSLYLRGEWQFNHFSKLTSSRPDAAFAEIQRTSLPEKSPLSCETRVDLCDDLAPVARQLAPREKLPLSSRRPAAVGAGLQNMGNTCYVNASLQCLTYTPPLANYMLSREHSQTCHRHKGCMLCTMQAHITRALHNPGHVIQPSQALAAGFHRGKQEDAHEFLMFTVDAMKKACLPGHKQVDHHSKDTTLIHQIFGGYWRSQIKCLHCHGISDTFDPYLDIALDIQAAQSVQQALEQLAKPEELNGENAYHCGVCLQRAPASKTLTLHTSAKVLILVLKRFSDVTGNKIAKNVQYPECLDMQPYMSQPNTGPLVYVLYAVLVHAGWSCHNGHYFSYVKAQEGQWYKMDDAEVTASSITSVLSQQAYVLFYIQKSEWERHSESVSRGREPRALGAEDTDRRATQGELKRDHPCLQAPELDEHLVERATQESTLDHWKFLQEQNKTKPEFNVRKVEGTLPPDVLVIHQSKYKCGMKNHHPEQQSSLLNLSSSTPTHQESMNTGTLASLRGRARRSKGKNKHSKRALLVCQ

This experiment addresses Ubiquitin carboxyl-terminal hydrolase 17-like protein 5 (Homo sapiens) (UniProt A8MUK1). Description: ubiquitin-specific protease 17 inhibitors, concentration series, biochemical, verification of primary actives (AID 1645864). Particulars: purified USP17, ubiquitin-rhodamine cleavage fluorescence, 3 h.
In the case of `Cc1ccccc1C(=O)NCCn1cc(SCC(=O)Nc2ccc3c(c2)OCCO3)c2ccccc21`, the IC50 was > 50 µM (inactive).
On to `CO[C@H]1CC[C@H](O)c2c1oc1c3c4c(c(O)c1c2=O)-c1c(cc2c(Cl)c(C)n(N)c(=O)c2c1O)C[C@@H]4OCO3`, for which the IC50 was 14 µM.
Regarding `Cc1ccccc1NC(=O)c1nc(-c2cn(Cc3ccc(F)cc3)nn2)no1`, the IC50 is 8.42 µM.
Then `O=C(Cn1c(-c2ccccc2)ncc(C(=O)NC2CC2)c1=O)Nc1ccccc1`, with 12.1 µM; and `Cc1ccccc1NC(=O)c1ccn(COc2ccc(Cl)cc2)n1`, with > 50 µM (inactive); and `COc1cc(C)cc2c1C(=O)c1c(cc(O)c(Cl)c1O)C2=O`, with 1.57 µM.
Then `Cc1nn(Cc2ccccc2)c(C)c1C(=O)NC1CCCc2ccccc21` (centres undefined), with > 50 µM (inactive); and `CC(=O)c1ccc(N2C(=O)N(Cc3cccc([N+](=O)[O-])c3)c3ccccc3S2(=O)=O)cc1`, with > 50 µM (inactive).
Then `CC(=O)c1ccc(NC(=O)c2nc3ccccc3nc2N2CCOCC2)cc1`, with > 50 µM (inactive); and `COc1ccc(OC)c(NC(=O)c2ccc(-n3nnnc3SC)cc2)c1`, with 29.9 µM; and `COc1ccc(Cl)cc1N1C(=O)[C@H]2[C@@H](C1=O)[C@]1(C(=O)Nc3c(C)cc(C)cc31)N1CCC[C@@H]21`, with > 50 µM (inactive).
Take `Cn1nccc1C(=O)N1CCCCC1c1ncc(Cc2ccc(Cl)cc2)o1` (centres undefined): the IC50 was > 50 µM (inactive).
As for `Cc1ccc2c(c1)N=C(c1ccc([N+](=O)[O-])cc1)CO2`, the IC50 was > 50 µM (inactive).
Then `O=C1/C(=C/c2cn(-c3ccccc3)nc2-c2ccc3c(c2)OCCO3)Cc2ccccc21`, with > 50 µM (inactive); and `Cc1ccccc1OCCSc1nc2ccccc2n1CC(=O)NC1CC1`, with 22.8 µM; and `COCCn1ccc2nc(C)c(C(=O)Nc3ccc4c(c3)OCCO4)cc2c1=O`, with 37 µM.
Consider `COc1cccc(NC(=O)Cn2c(COc3ccccc3)nc3ccccc32)c1`, for which the IC50 is 4.83 µM.
As for `CCOc1ccc(NC(=O)CSc2nc3n[nH]c(C)c3c(=N)n2-c2ccc(OC)cc2)cc1`, the figure is > 50 µM (inactive); as for `CCOc1ccc2c(c1)c(=O)c(C(=O)c1ccccc1)cn2CC(=O)Nc1ccc2c(c1)OCCO2`, 20.4 µM.
As for `CC(C)(C)c1ccc(Cn2nnc3c(=O)[nH]c(C4CCN(S(=O)(=O)c5ccc(S(=O)(=O)NC6CC6)cc5)CC4)nc32)cc1`, the figure is 39.3 µM.
As for `Cc1c(-c2nsc(NC(=O)c3ccc(Cl)cc3)n2)nnn1-c1ccccc1F`, the IC50 was 0.674 µM.
As for `O=C(COc1ccc(F)cc1)Nc1cc(F)c2nc(N3CCOCC3)ccc2c1`, the figure is 4.34 µM; as for `CCCCNc1nc2c(-c3ccccc3)nnn2c2ccccc12`, 3.08 µM.
As for `COc1ccc(C2C(C(=O)Nc3ccccc3OC)=C(C)Nc3nnnn32)cc1Br` (centres undefined), the IC50 was 36.3 µM.
As for `COC(=O)c1cc(C#N)c(NCc2ccccc2)nc1C`, the figure is 13.4 µM; as for `O=C(Cc1ccc(Cl)c(Cl)c1)OCC(=O)c1c[nH]c2ccccc12`, > 50 µM (inactive); as for `Cc1cc(Cl)ccc1Nc1nc(Nc2cccc(F)c2)nc2nccnc12`, > 50 µM (inactive).
Then `Cc1ccc(Nc2nc(Nc3cccc(F)c3)nc3nccnc23)c(C)c1`, with > 50 µM (inactive); and `Cc1ccc(C)c(-c2cc3c(=O)n(Cc4noc(CN5CCCCC5)n4)ccn3n2)c1`, with > 50 µM (inactive); and `CCOC(=O)c1cccc(NC(=O)Nc2cccn3nc(C)nc23)c1`, with > 50 µM (inactive).
Then `Cc1ccc(S(=O)(=O)N2CCC3(CC2)NC(=O)c2ccccc2N3)c(C)c1`, with 17.9 µM; and `Cc1cc(C)cc(NC(=O)CSc2ccc(-c3ccncc3)nn2)c1`, with > 50 µM (inactive).
On to `CCN(CC)c1cc(C)c2cc(NC(=O)c3ccncc3)ccc2n1`, for which the IC50 was > 50 µM (inactive).
Then `C/C=C(\Cl)C1=CC(=O)[C@]23C[C@H]2[C@@]2(C)CO[C@@]1(O)[C@@]3(O)O2`, with 28.2 µM; and `Cc1nn(-c2ccccc2)c2c1N=C1C(Cl)=CC(Cl)=CN1C21C(=O)Nc2ccccc21` (centres undefined), with > 50 µM (inactive); and `COc1ccc(OC)c2c(C)cc(N3CCN(S(=O)(=O)c4ccc5c(c4)CCCN5S(C)(=O)=O)CC3)nc12`, with 9.83 µM.
In the case of `Cc1ccc(NC(=O)C2CCN(c3cncnc3N3CCCC3)CC2)cc1`, the IC50 was > 50 µM (inactive).
As for `CC(=O)Nc1ccc(-n2cnc(C(=O)NC(C)c3ccccc3)c2)nc1` (centres undefined), the figure is 29.2 µM; as for `Cc1cccc(NC(=O)CSc2ccc(-n3cnc(-c4ccccc4)c3)nn2)c1`, 6.17 µM.
In the case of `CC(C)NS(=O)(=O)c1ccc(OCC(=O)N2CCC(Cc3ccccc3)CC2)cc1`, the IC50 was > 50 µM (inactive).
On to `Cc1ncncc1C(=O)N1CCCC(C)(c2ncc(Cc3cccc(F)c3)o2)C1` (centres undefined), for which the IC50 is > 50 µM (inactive).
Then `COc1ccc(-c2cc3nc([C@H](C)NC(=O)Cc4ccccc4C)nn3cn2)cc1`, with 2.38 µM; and `CC(OC(=O)c1c2c(nc3ccccc13)CCCCC2)C(=O)Nc1ccc2ccccc2c1` (centres undefined), with 3.81 µM; and `C=C1CCC2[C@](C)(CCC[C@]2(C)C(=O)OC)[C@H]1CCc1ccoc1CNC(C)C` (some centres undefined), with > 50 µM (inactive).
Take `CC(C)(C)c1cc(CCC(=O)Nc2c3c(nc4c2CCC4)CCCC3)cc(C(C)(C)C)c1O`: the IC50 is > 50 µM (inactive).
Consider `CC(C)Cn1cc(OC(=O)c2ccc(F)cc2)c2c1nc(-c1ccc(F)cc1)n1c3ccccc3nc21`, for which the IC50 was > 50 µM (inactive).
For `O=c1c2cnc(N3CCCCC3)nc2ccn1CCc1ccccc1`, the IC50 is 1.87 µM.
Then `C[C@@H](C(=O)NCc1ccc(F)cc1)N1C(=O)N2CCc3c([nH]c4ccccc34)[C@@]2(C)C1=O`, with 5.77 µM; and `COc1cc(O)c2c(c1)C1=CC(=O)C(O)=C[C@]1(C)OC2=O`, with 49.4 µM.
Regarding `COc1ccc(C(=O)NCCc2nnc3ccc(SCC(=O)NCc4ccc(F)cc4)nn23)cc1`, the IC50 is 18.5 µM.
As for `O=c1ccc(-c2noc(Cc3c(F)cccc3Cl)n2)c[nH]1`, the figure is > 50 µM (inactive); as for `Cn1cccc1C(=O)N1CCCC2(C1)Nc1cccnc1NC2=NC1CCCC1` (centres undefined), > 50 µM (inactive); as for `O=C1CC(O)C(O)c2cccc(O)c21` (centres undefined), 9.86 µM.
Take `CC1Oc2ccccc2C(=O)N(Cc2ccc([N+](=O)[O-])cc2)C1=O` (centres undefined): the IC50 is > 50 µM (inactive).
Then `Cc1c(C)c2ccc(OCC(=O)NCc3ccncc3)c(C)c2oc1=O`, with 41.8 µM; and `CC(C)(C)c1ccc(C(=O)Nc2ccc(Oc3cccnc3)nc2)cc1`, with > 50 µM (inactive); and `CCn1c(CN2CCCC(c3nc(-c4cccnc4)n[nH]3)C2)nc2ccccc21` (centres undefined), with > 50 µM (inactive).
As for `CCc1ccc(OCc2nnc(SCC(=O)Nc3ccccc3OC)n2Cc2ccccc2)cc1`, the figure is > 50 µM (inactive); as for `COc1ccc(C(=O)CSc2nnc(-c3cc4cccc(OC)c4o3)n2C)cc1OC`, > 50 µM (inactive).
Then `CN=C(N)NCCC/C=C/CCCC(C)CC(C)C1OC(=O)/C=C/C(C)C(O)CC(O)C(C)C(O)CCC(C)C(O)CC2(O)OC(CC(OC(=O)CC(=O)O)CC(O)CC(O)C(C)C(O)/C=C/C1C)CC(O)C2O` (centres undefined), with > 50 µM (inactive).
As for `Cc1nc(Nc2ncc(C)s2)cc(C2CN(C(=O)Cc3ccccc3)CCO2)n1` (centres undefined), the IC50 was > 50 µM (inactive).
Then `Cc1cccc(O)c1-c1nc2c(-c3nc4c(C(=O)O)cccc4o3)cccc2o1`, with > 50 µM (inactive).
As for `COc1cccc(-n2nnc(C(=O)Nc3ccc(C)c(C)c3)c2C)c1`, the figure is > 50 µM (inactive); as for `O=C(Nc1cc(Cl)cc(Cl)c1)c1csnn1`, 22.4 µM.
With `Cn1c2ccccc2c2ncn(Cc3ccc(F)cc3)c(=O)c21`, the IC50 was 43.9 µM.
With `COc1ccc(NC(=O)c2nnn(-c3ccccc3C)c2C)cc1OC`, the IC50 was > 50 µM (inactive).
As for `O=c1[nH]c(C2CCN(S(=O)(=O)c3ccc(S(=O)(=O)NC4CCCC4)cc3)CC2)nc2c1nnn2Cc1cccc(Cl)c1`, the figure is > 50 µM (inactive); as for `O=C(Cn1c(=O)n(Cc2ccc3c(c2)OCO3)c(=O)c2ncccc21)c1ccccc1`, 46.8 µM; as for `c1ccc2c(Cc3nc(-c4ccncc4)no3)cccc2c1`, > 50 µM (inactive).
Then `COc1ccccc1CNC(=O)CCCn1c(=O)c2ccccc2n(CC(=O)N2CCN(c3ccccc3)CC2)c1=O`, with 29.2 µM.
Then `CCc1nc2cc(NC(=O)c3cccc(N4CCCC4=O)c3)ccc2n1C`, with > 50 µM (inactive); and `NC(=O)c1nc(-c2cccnc2)nc2c1[nH]c(=O)n2-c1ccc2c(c1)OCO2`, with 4.01 µM; and `O=C1CC(C(=O)Nc2ccccc2Cl)n2nc(-c3ccccc3)cc2N1` (centres undefined), with 28.7 µM.
With `O=C(Nc1ccc(Cl)cc1)Nc1cccn2ncnc12`, the IC50 is 21.7 µM.
As for `Cc1cc(C)n2nc(CNc3cccc(Cl)c3)nc2n1`, the figure is > 50 µM (inactive); as for `COc1ccccc1CC(=O)Nc1nc2ccccc2[nH]1`, 33.3 µM.
Turning to `O=C(NC1CCS(=O)(=O)C1)c1ccc(N2CCC(Cc3ccccc3)CC2)nn1` (centres undefined), the IC50 is > 50 µM (inactive).
In the case of `COc1ccc(C(=O)CCN2CCOCC2)cc1[N+](=O)[O-]`, the IC50 is > 50 µM (inactive).
As for `CCN1CCN(C(=O)CCCN(c2ccccc2)S(C)(=O)=O)CC1`, the figure is > 50 µM (inactive); as for `CC(=O)c1cccc(NC(=O)c2ccc(N3CCCCC3)nn2)c1`, 43 µM; as for `Cc1ccc(Cl)c(-n2nnc(C(=O)Nc3ccccc3C#N)c2C)c1`, 4.85 µM.
Then `NS(=O)(=O)c1cccc(NC(=O)CN2CCCc3ccccc32)c1`, with > 50 µM (inactive).
Then `COc1ccc(OC)c(NC(=O)Cn2c(=O)n(CC3CCC(C(=O)NCCc4ccccc4)CC3)c(=O)c3ccccc32)c1` (centres undefined), with 0.262 µM; and `CC1=C[C@@H](C)CC[C@H]2O[C@@H](C3=C(O)C(=O)C(C)=C4O[C@](O)(C=C43)[C@@H](C)C[C@H](C)C1)[C@H](C)[C@@H](O)[C@H]2C`, with 16.1 µM.
